Reference: patent US9808477B2 (Macau University of Science and Technology, priority 2015, dated 2017)
Read-outs that look alike come from different tables or passages of the source.

Assays:
Format in all cases: cell-based, human
[1] = test system: A2780/T cells (PTX-resistant, ABCB1-overexpressing ovarian cancer cells); assay: cells; settings: for IC50: read-out: IC50 ± SD
Method: (§1) Sulphorhodamine B (SRB) assays were used for cell density determination, based on sensitive measure of total cellular protein, which perform similarly compared with other proliferation assays such as MTT assay. Briefly, cells were seeded into flat bottomed 96-well plates at an initial density of 7.5×10^3 per well before treatment. […] After removing the medium, cells were fixed in 10% trichloroacetic acid for 1 h at 4° C. and then washed with water five times. 0.4% SRB dissolved in 1% v/v acetic acid was added and incubated […] for staining. The cells were quickly washed with 1% acetic acid and left to dry overnight. The protein bound SRB was solubilized by adding 200 μl 10 mM Tris buffer per well and was measured at wavelengths 490 nm using a plate reader (Spectra MAX 250; Molecular Devices, Sunnyvale, Calif.). The optical density of SRB in each well is directly proportional to the cell number.

[2] = test system: A549/T cells (PTX-resistant, ABCB1-overexpressing NSCLC cells); assay: SRB cell cytotoxicity / MDR reversal assay; settings: for fold reversal: drug alone (reference)
Method: as §1

A2780 cells = assay: Cell cycle analysis (PI, flow cytometry); settings: A2780, PTX 0.01 μM
A2780/T cells [3] = assay: Colony formation assay; settings: 9 μM nobiletin alone or 0.94 μM PTX alone, 12 days
Source text: The A2780/T cells were trypsinized and plated in fresh culture medium at a density of 600 cells/9.6 cm^2 plate. Subsequently, the cells were fixed with 70% ethanol and stained with crystal violet (0.5% in ethanol). The plates were rinsed with phosphate buffered saline (PBS), and the colony numbers were counted using the software of Quantity one-Colony counting.

A2780/T cells [4] = assay: Apoptosis analysis by Annexin-V/PI double staining; settings: 9 μM nobiletin alone or 0.94 μM PTX alone
Method: After treatment, 1×10^6 cells were collected, washed and suspended in 100 μl of binding buffer (10 mM N-2-hydroxyethylpiperazine-N,-2-ethanesulfonic acid/NaOH, 140 mM NaCl, 2.5 mM CaCl2, pH 7.4). Apoptotic cells were identified by double supravital staining with 5 μl recombinant FITC (fluorescein isothiocyanate)-conjugated Annexin-V and 5 μl PI (50 μg/ml). The cells were stained for […] at room temperature in the dark, and analyzed by fluorescence-activated cell sorting cater-plus flow cytometry. Data acquisition and analysis were performed in BD FACS Aria with FlowJo software.

A2780/T cells [5] = assay: Cell cycle analysis (PI, flow cytometry); settings: 0.94 μM PTX, no nobiletin
Method: A2780/T cells were harvested 24 hours, 48 hours, or 72 hours after treatment and washed twice with ice-cold PBS. The cells were fixed and permeabilized with 70% ice-cold ethanol overnight at 4° C. or 2 h at −20° C. After one additional wash in PBS, cells were stained with a staining solution containing propidium iodide (PI) ([…]) and RNase A (250 μg/ml) for 30 min at room temperature. They were then pelleted, washed and suspended in PBS to a final concentration of 1×10^6/ml and analyzed by flow cytometry BD FACS Aria (BD Biosciences, San Jose, Calif.).

A2780/T cells [6] = assay: Combination index, Chou-Talalay method (CalcuSyn); settings: Homo sapiens, A2780, read-out: Dose PTX at Fa = 0.5 (ED50), CalcuSyn simulation, A2780/T; PTX dose, alone or in the combination
A2780/T cells [7] = assay: Intracellular accumulation of doxorubicin and Flutax-2; settings: 8 h, 4.5 μM nobiletin or 20 μM QND
[8] = A2780/T, 48 h, drug +0.5 μM nobiletin (N)
[9] = A2780/T, 48 h, drug +1.5 μM nobiletin (N)
[10] = A2780/T, 48 h, drug +4.5 μM nobiletin (N)
[11] = Homo sapiens, A2780, 48 h, A2780/T, 48 h, SRB, drug alone (no nobiletin)
[12] = Homo sapiens, A549, 48 h, 48 h, SRB, drug alone (no nobiletin)

`COc1cccc2c1C(=O)c1c(O)c3c(c(O)c1C2=O)C[C@@](O)(C(=O)CO)C[C@@H]3O[C@H]1C[C@H](N)[C@H](O)[C@H](C)O1` [Doxorubicin] was tested, and the “degree of resistance: mean IC50 in A2780/T cells relative to A2780” value [1] was 158 fold, the fold reversal [1] was 1.00 fold and the IC50 [1, 8] was 3.77 ± 0.3 µM. It also gave an IC50 [1, 9] of 1.89 ± 0.16 µM, an IC50 [1, 10] of 1.13 ± 0.18 µM and an IC50 ([1]; A2780/T, 48 h, drug +9 μM nobiletin (N)) of 0.38 ± 0.04 µM. For the same molecule, the IC50 [1, 11] was 5.97 ± 0.49 µM, the IC50 [2, 12] was 5.97 ± 0.49 µM and the “Fold reversal (IC50 without / with nobiletin)” value ([2]; drug +0.5 μM nobiletin) was 1.42 ± 0.23 fold. The IC50 ([2]; drug +0.5 μM nobiletin (N)) was 4.23 ± 0.35 µM, the “Fold reversal (IC50 without / with nobiletin)” value ([2]; drug +1.5 μM nobiletin) was 2.25 ± 0.37 fold and the IC50 ([2]; drug +1.5 μM nobiletin (N)) was 2.67 ± 0.22 µM. For the same molecule, the “Fold reversal (IC50 without / with nobiletin)” value ([2]; drug +4.5 μM nobiletin) was 5.01 ± 0.01 fold, the IC50 ([2]; drug +4.5 μM nobiletin (N)) was 1.19 ± 0.1 µM and the “Fold reversal (IC50 without / with nobiletin)” value ([2]; drug +4.5 μM nobiletin, listed as doxorubicin) was 5.01 fold. It also gave a fold reversal [2] of 1.00 fold.

`CC(=O)O[C@H]1C(=O)[C@@]2(C)[C@H]([C@H](OC(=O)c3ccccc3)[C@]3(O)C[C@H](OC(=O)[C@H](O)[C@@H](NC(=O)c4ccccc4)c4ccccc4)C(C)=C1C3(C)C)[C@]1(OC(C)=O)CO[C@@H]1C[C@@H]2O` [Paclitaxel] showed a G1 phase content (A2780 cells; 24 hours) of 46.47%, a G2-M content (A2780 cells; 24 hours) of 31.9% and a G1 phase content (A2780 cells; 48 hours) of 15.57%. The G2-M content (A2780 cells; 48 hours) was 63.2%, the G1 phase content (A2780 cells; 72 hours) was 5.53% and the G2-M content (A2780 cells; 72 hours) was 80.07%. For the same molecule, the “degree of resistance: mean IC50 in A2780/T cells relative to A2780” value [1] was 501 fold, the fold reversal [1] was 1.00 fold and the IC50 ([1]; Homo sapiens, A2780, 48 h) was 2.51 µM. The “inhibition of colony formation, single agent” value (A2780/T cells [3]) was “no inhibition”, the “apoptosis induction, single treatment” value (A2780/T cells [4]) was “did not show apoptosis induction” and the G1 phase cells (A2780/T cells [5]) was 72%. For the same molecule, the G2 phase cells (A2780/T cells [5]) was 17%, the IC50 [2, 12] was 1.89 ± 0.15 µM and the “Fold reversal (IC50 without / with nobiletin)” value ([2]; drug +0.5 μM nobiletin) was 2.51 ± 0.01 fold. For the same molecule, the IC50 ([2]; drug +0.5 μM nobiletin (N)) was 0.75 ± 0.06 µM, the “Fold reversal (IC50 without / with nobiletin)” value ([2]; drug +0.5 μM nobiletin, listed as PTX) was 2.51 fold and the “Fold reversal (IC50 without / with nobiletin)” value ([2]; drug +1.5 μM nobiletin) was 5.65 ± 0.8 fold. The IC50 ([2]; drug +1.5 μM nobiletin (N)) was 0.34 ± 0.02 µM, the “Fold reversal (IC50 without / with nobiletin)” value ([2]; drug +1.5 μM nobiletin, listed as PTX) was 5.65 fold and the “Fold reversal (IC50 without / with nobiletin)” value ([2]; drug +4.5 μM nobiletin) was 22.33 ± 3.6 fold. The IC50 ([2]; drug +4.5 μM nobiletin (N)) was 0.09 ± 0.01 µM, the “Fold reversal (IC50 without / with nobiletin)” value ([2]; drug +4.5 μM nobiletin, listed as PTX) was 22.33 fold and the “Fold reversal (IC50 without / with nobiletin)” value ([2]; drug +4.5 μM nobiletin, listed as paclitaxel) was 22.33 fold. The “Fold reversal (IC50 without / with nobiletin)” value ([2]; drug +9 μM nobiletin) was 62.88 ± 0.98 fold, the IC50 ([2]; drug +9 μM nobiletin (N)) was 0.03 ± 0.004 µM and the “Fold reversal (IC50 without / with nobiletin)” value ([2]; drug +9 μM nobiletin, listed as PTX) was 62.88 fold. It also gave a fold reversal [2] of 1.00 fold and an EC50 (A2780/T cells [6]) of 4.2 µM.

Molecule `O=c1[nH]cc(F)c(=O)[nH]1` [5-Fluorouracil] has a fold reversal [1] of 1.00 fold, an IC50 [1, 8] of 132 ± 23.8 µM and an IC50 [1, 9] of 79.8 ± 9.18 µM. For the same molecule, the IC50 [1, 10] was 26.1 ± 1.77 µM, the IC50 [1, 11] was 159 ± 18.3 µM and the IC50 [2, 12] was 134 ± 10.9 µM. For the same molecule, the “Fold reversal (IC50 without / with nobiletin)” value ([2]; drug +0.5 μM nobiletin) was 1.26 ± 0.01 fold, the “Fold reversal (IC50 without / with nobiletin)” value ([2]; drug +1.5 μM nobiletin) was 1.99 ± 0.01 fold and the “Fold reversal (IC50 without / with nobiletin)” value ([2]; drug +4.5 μM nobiletin) was 7.94 ± 0.02 fold. For the same molecule, the IC50 ([2]; drug +4.5 μM nobiletin (N)) was 16.8 ± 1.36 µM, the “Fold reversal (IC50 without / with nobiletin)” value ([2]; drug +4.5 μM nobiletin, listed as 5-fluorouracil) was 7.94 fold and the fold reversal [2] was 1.00 fold.

`C=C[C@H]1C[N@@]2CC[C@H]1C[C@@H]2[C@@H](O)c1ccnc2ccc(OC)cc12` [QND, quinidine] was tested, and the “intracellular accumulation of DOX” value (A2780/T cells [7]; 5 μM DOX) was “higher than that in untreated A2780/T” and the “intracellular accumulation of Flutax-2” value (A2780/T cells [7]; Flutax-2 1 μM) was “higher than that in untreated A2780/T”.

`COc1cccc2c1C(=O)c1c(O)c3c(c(O)c1C2=O)C[C@@](O)(C(C)=O)C[C@@H]3O[C@H]1C[C@H](N)[C@H](O)[C@H](C)O1` [Daunorubicin] gave a fold reversal [1] of 1.00 fold, an IC50 ([1]; Homo sapiens, A2780, 48 h) of 11.9 ± 0.97 µM and an IC50 [2, 12] of 10.1 ± 1.63 µM. The “Fold reversal (IC50 without / with nobiletin)” value ([2]; drug +0.5 μM nobiletin) was 1.68 ± 0.14 fold, the IC50 ([2]; drug +0.5 μM nobiletin (N)) was 5.97 ± 0.49 µM and the “Fold reversal (IC50 without / with nobiletin)” value ([2]; drug +1.5 μM nobiletin) was 3.55 ± 0.01 fold. The IC50 ([2]; drug +1.5 μM nobiletin (N)) was 2.84 ± 0.46 µM, the “Fold reversal (IC50 without / with nobiletin)” value ([2]; drug +4.5 μM nobiletin) was 14.17 ± 0.04 fold and the IC50 ([2]; drug +4.5 μM nobiletin (N)) was 0.71 ± 0.13 µM. The “Fold reversal (IC50 without / with nobiletin)” value ([2]; drug +4.5 μM nobiletin, listed as daunorubicin) was 14.17 fold and the fold reversal [2] was 1.00 fold.

With `CC(=O)O[C@@]12CO[C@@H]1C[C@H](O)[C@@]1(C)C(=O)[C@H](O)C3=C(C)[C@@H](OC(=O)[C@H](O)[C@@H](NC(=O)OC(C)(C)C)c4ccccc4)C[C@@](O)([C@@H](OC(=O)c4ccccc4)[C@H]21)C3(C)C` [Docetaxel] the fold reversal [1] was 1.00 fold, the IC50 [1, 8] was 8.97 ± 1.46 µM and the IC50 [1, 10] was 1.13 ± 0.18 µM. It also gave an IC50 [1, 11] of 17.9 ± 2.89 µM, an IC50 ([1]; Homo sapiens, A2780, 48 h, A2780/T, 48 h, drug +1.5 μM nobiletin (N)) of 3.57 ± 0.58 µM and an IC50 [2, 12] of 13.4 ± 1.09 µM. The “Fold reversal (IC50 without / with nobiletin)” value ([2]; drug +0.5 μM nobiletin) was 1.59 ± 0.01 fold, the IC50 ([2]; drug +0.5 μM nobiletin (N)) was 8.43 ± 0.69 µM and the “Fold reversal (IC50 without / with nobiletin)” value ([2]; drug +1.5 μM nobiletin) was 5.05 ± 0.82 fold. For the same molecule, the IC50 ([2]; drug +1.5 μM nobiletin (N)) was 2.67 ± 0.22 µM, the “Fold reversal (IC50 without / with nobiletin)” value ([2]; drug +4.5 μM nobiletin) was 19.18 ± 4.59 fold and the IC50 ([2]; drug +4.5 μM nobiletin (N)) was 0.71 ± 0.11 µM. The “Fold reversal (IC50 without / with nobiletin)” value ([2]; drug +4.5 μM nobiletin, listed as docetaxel) was 19.18 fold and the fold reversal [2] was 1.00 fold.
